Consider six molecules from US20070135431A1, “INHIBITORS OF HISTONE DEACETYLASE FOR THE TREATMENT OF DISEASE” (KALYPSYS, INC, priority 2005, published 2007).

For one experiment, the system named is HDAC in cells. Briefly: Cellular HDAC inhibition (cellular histone hyperacetylation / cytotoxicity assays; Table 1 only says Cellular IC50). The format is cell-based. Conditions: transformed cell lines (e.g. HeLa, A549, MCF-7); cell line not given. How it is done: 2) Cellular Histone Hyperacetylation Assays:
These two secondary assays evaluate a compound's ability to inhibit HDAC in cells by measuring cellular histone acetylation levels. The cytoblot facilitates quantitative EC50 information for cellular HDAC inhibition. Transformed cell lines (e.g. HeLa, A549, MCF-7) are cultured under standard media and culture conditions prior to plating.
Cells (approx. 2,500/well) are allowed to adhere 10-24 hours to wells of a 384-well Greiner PS assay plate in media containing 1-5% serum. Cells are treated with appropriate compound and specific concentrations for 0 to 24 hours. Cells are washed once with PBS (60 μL) and then fixed (95% ethanol, 5% acetic acid or 2% PFA) for 1 minute at RT (30 μL). Cells are blocked with 1% BSA for 1 hour and washed and stained with antibody (e.g. anti-Acetylated Histone H3, Upstate Biotechnology), followed by washing and incubation with an appropriate secondary antibody conjugated to HRP or fluorophore. For luminescence assays, signal is generated using Luminol substrate (Santa Cruz Biotechnology) and detected using an Aquest plate reader (Molecular Devices).
3) Differential Cytotoxicity Assay:
HDAC inhibitors display differential cytotoxicity toward certain transformed cell lines. Cells are cultured according to standard ATCC recommended conditions that are appropriate to each cell type. Compounds were tested for their ability to kill different cell types (normal and transformed) using the ATPlite luminescence ATP detection assay system (Perkin Elmer). Assays are run in either 384-well or 1536-well Greiner PS plates. Cells (30 μL or 5 μL, respectively) are dispensed using either multichannel pipette for 384-well plates, or proprietary Kalypsys bulk liquid dispenser for 1536-well plates. Compounds added using proprietary pin-transfer device (500 nL or 5 nL) and incubated 5 to 30 hours prior to analysis. Luminescence is measured using Aquest plate reader (Molecular Devices).

The next experiment relates to HDAC. Kind of experiment: In vitro HDAC-inhibition assay (Fluor de Lys fluorescent activity assay). The format is biochemical. Conditions: HDAC enzyme source (e.g. nuclear extract or immunopurified HDAC complexes), Fluor de Lys substrate, 30 minutes RT. The method, then:
1) In vitro HDAC-inhibition Assay:
This assay measures a compound's ability to inhibit acetyl-lysine deacetylation in vitro and was used as both a primary screening method as well as for IC50 determinations of confirmed inhibitors. The assay is performed in vitro using an HDAC enzyme source (e.g. partially purified nuclear extract or immunopurified HDAC complexes) and a proprietary fluorescent substrate/developer system (HDAC Quantizyme Fluor de Lys Fluorescent Activity Assay, BIOMOL). The assay is run in 1,536-well Greiner white-bottom plates using the following volumes and order of addition: • Step 1: Enzyme (2.5 μL) source added to plate (from refrigerated container) • Step 2: Compounds (50 nL) added with pin transfer device • Step 3: Fluor de Lys (2.5 μL) substrate added, incubate at RT, 30 minutes • Step 4: Developer (5 μL) solution is added (containing TSA), to stop reaction • Step 5: Plate Reader—data collection
The deacetylated fluorophore is excited with 360 nm light and the emitted light (460 nm) is detected on an automated fluorometric plate reader (Aquest, Molecular Devices).

The IC50 is the point on the concentration scale where inhibition reaches its midpoint. Read a high IC50 as a need for much substance.

For `CC(=O)SCC(=O)c1ccc(NS(=O)(=O)c2ccc(OCCc3ccccn3)cc2)cc1` [Example 21, Thioacetic acid S-(2-oxo-2-{4-[4-(2-pyridin-2-yl-ethoxy)-benzenesulfonylamino]-phenyl}-ethyl) ester], the IC50 in the experiment with HDAC in cells and in the experiment on HDAC was at most 1 µM throughout.
`CC(=O)SCC(=O)c1ccc(NS(=O)(=O)c2ccc(CN3CCOCC3)cc2)cc1` [Example 07, Thioacetic acid S-{2-[4-(4-morpholin-4-ylmethyl-benzenesulfonylamino)-phenyl]-2-oxo-ethyl} ester]: the IC50 in the experiment with HDAC in cells and in the experiment on HDAC was at most 1 µM in each case.
On to `CC(=O)SCC(=O)c1ccc(NS(=O)(=O)c2ccc(OCCN3CCOCC3)cc2)cc1` [Example 20, Thioacetic acid S-(2-{4-[4-(2-morpholin-4-yl-ethoxy)-benzenesulfonylamino]-phenyl}-2-oxo-ethyl) ester], for which the IC50 with HDAC in cells and with HDAC was at most 1 µM each time.
Regarding `CC(=O)SCC(=O)c1ccc(NS(=O)(=O)c2ccc(OCCCN3CCOCC3)cc2)nc1` [Example 11, Thioacetic acid S-(2-{6-[4-(3-morpholin-4-yl-propoxy)-benzenesulfonylamino]-pyridin-3-yl}-2-oxo-ethyl) ester], the IC50 in the experiment on HDAC in cells and in the experiment on HDAC was at most 1 µM each time.
For the molecule `CC(=O)SCC(=O)c1ccc(NS(=O)(=O)c2ccc(OC3CCCN(C)C3)cc2)nc1` (stereo not drawn) [Example 30, Thioacetic acid S-(2-{6-[4-(1-methyl-piperidin-3-yloxy)-benzenesulfonylamino]-pyridin-3-yl}-2-oxo-ethyl) ester], the half-inhibitory concentration (IC50) with HDAC in cells and with HDAC was at most 1 µM each time.
As to `CC(=O)SCC(=O)c1ccc(NS(=O)(=O)c2ccc(OCCCCc3ccccc3)cc2)nc1` [Example 14, Thioacetic acid S-(2-oxo-2-{6-[4-(4-phenyl-butoxy)-benzenesulfonylamino]-pyridin-3-yl}-ethyl) ester], the half-maximal inhibitory concentration (IC50) with HDAC in cells and in the experiment on HDAC was at most 1 µM each time.
